Results taken from ChEMBL document CHEMBL1201862, “PubChem BioAssay data set” (2004).
Active and inactive are the calls of the source.

Tests used:
[1] = target: T1, Calpain-2 catalytic subunit (Sus scrofa, UniProt P43367); experiment: m-calpain protease blockers, concentration series – biochemical, fluorogenic peptide substrate, dose response (AID 1420); type: functional
T1 sequence (P43367 whole entry): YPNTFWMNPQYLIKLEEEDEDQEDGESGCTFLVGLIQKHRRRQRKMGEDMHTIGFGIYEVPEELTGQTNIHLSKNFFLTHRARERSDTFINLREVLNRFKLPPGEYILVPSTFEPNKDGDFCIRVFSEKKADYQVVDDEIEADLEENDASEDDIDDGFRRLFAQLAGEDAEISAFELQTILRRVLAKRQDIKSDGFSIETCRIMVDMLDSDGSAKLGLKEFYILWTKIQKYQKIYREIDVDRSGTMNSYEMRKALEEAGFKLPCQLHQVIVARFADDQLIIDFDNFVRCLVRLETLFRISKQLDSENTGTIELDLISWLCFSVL

[2] = blockade of melanocortin 4 receptor signaling – cell-based, plate reader, cherry pick, counter-screen for LGR2 antagonist project, dose response (AID 743444); type: functional;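 further: transfected HEK 293 cells stimulated with alpha-MSH peptide; potency of inhibitors of the alpha-MSH evoked signal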
[3] = test system: HT-1080; experiment: HT1080 cell viability loss – fluorescence readout (AID 620); type: functional, cell-based; settings: Homo sapiens
[4] = A549 cell cytotoxicity, dose response, cytotoxicity control, plate reader, cherry-pick, antagonist series (AID 743412); type: functional, cell-based
[5] = target: Luciferin 4-monooxygenase (Photinus pyralis, UniProt P08659); experiment: Counter Screen for Luciferase-based Assay Positives. [Related pubchem assays: 620, 618, 411 ]
Chain of Luciferin 4-monooxygenase (P08659 whole entry): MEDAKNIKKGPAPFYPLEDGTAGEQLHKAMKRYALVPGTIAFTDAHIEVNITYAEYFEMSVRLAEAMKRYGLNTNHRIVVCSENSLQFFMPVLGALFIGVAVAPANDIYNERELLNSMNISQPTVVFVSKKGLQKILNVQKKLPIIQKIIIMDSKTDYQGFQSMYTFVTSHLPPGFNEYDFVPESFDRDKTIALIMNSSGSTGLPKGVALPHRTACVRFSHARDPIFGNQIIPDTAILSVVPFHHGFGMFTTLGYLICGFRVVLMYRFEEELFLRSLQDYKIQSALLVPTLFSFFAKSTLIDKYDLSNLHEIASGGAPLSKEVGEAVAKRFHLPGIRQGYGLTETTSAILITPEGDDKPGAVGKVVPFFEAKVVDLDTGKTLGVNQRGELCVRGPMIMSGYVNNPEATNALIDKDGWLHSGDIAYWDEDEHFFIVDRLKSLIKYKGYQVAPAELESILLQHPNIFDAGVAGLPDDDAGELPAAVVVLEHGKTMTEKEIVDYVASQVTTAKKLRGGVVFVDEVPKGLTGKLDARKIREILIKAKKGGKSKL

[6] = blockers of bursicon-stimulated LGR2 cAMP reporter – cell-based, HEK293, CRE-luciferase reporter, cherry pick, set 2, dose response (AID 743343); type: functional;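 further: transfected cells were stimulated with diluted bursicon conditioned medium after compound addition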
[7] = toxicity toward HepG2 liver cells – cell-based, plate reader, cherry-pick, antagonist series, cytotoxicity control, dose response (AID 743416); type: functional
[8] = viability loss in HEK293 cells – cell-based, plate reader, cherry-picked samples, cytotoxicity control, dose response (AID 743446); type: functional
[9] = viability loss in CEM21 cells – cell-based, CellTiter-Glo luminescence, cherry-picked, cytotoxicity control for viral fusion inhibitor project, dose response (AID 652042); type: functional;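 further: potency for signal decrease meaning cytotoxicity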
[10] = blockers of HIV-1 envelope-mediated cell-cell fusion – cherry-pick, dose response (AID 652057); type: functional, cell-based
[11] = HIV-1 AD8 envelope cell-cell fusion blockers – cherry-pick, dose response (AID 652062); type: functional, cell-based;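 further: luciferase signal from cell-cell fusion driven by HIV-1 clade B AD8 Env; potency is for inhibitors of fusion seen as a drop in luminescence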
[12] = cells; type: functional, cell-based
[13] = target: T2, Nuclear receptor subfamily 0 group B member 1 (Homo sapiens, UniProt P51843); type: functional, cell-based;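 further: HEK293T cells transfected with SF-1 and DAX-1 plus StAR promoter luciferase reporter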
T2 sequence (P51843 whole entry): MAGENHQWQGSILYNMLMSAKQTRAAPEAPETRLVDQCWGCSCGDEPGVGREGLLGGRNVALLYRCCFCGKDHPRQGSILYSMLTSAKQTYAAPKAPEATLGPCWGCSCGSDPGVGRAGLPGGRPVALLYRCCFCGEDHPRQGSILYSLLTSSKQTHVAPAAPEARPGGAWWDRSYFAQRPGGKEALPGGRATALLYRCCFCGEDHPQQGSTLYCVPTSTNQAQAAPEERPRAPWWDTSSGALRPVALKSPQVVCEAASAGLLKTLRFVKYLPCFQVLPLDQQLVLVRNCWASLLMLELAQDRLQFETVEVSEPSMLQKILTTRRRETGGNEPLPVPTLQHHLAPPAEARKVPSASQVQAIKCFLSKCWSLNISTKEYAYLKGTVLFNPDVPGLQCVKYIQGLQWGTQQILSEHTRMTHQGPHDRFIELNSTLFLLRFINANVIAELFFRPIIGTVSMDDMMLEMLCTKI

[14] = target: T3, DNA repair protein RAD52 homolog (Homo sapiens, UniProt P43351); type: functional, biochemical
T3 sequence (P43351 whole entry): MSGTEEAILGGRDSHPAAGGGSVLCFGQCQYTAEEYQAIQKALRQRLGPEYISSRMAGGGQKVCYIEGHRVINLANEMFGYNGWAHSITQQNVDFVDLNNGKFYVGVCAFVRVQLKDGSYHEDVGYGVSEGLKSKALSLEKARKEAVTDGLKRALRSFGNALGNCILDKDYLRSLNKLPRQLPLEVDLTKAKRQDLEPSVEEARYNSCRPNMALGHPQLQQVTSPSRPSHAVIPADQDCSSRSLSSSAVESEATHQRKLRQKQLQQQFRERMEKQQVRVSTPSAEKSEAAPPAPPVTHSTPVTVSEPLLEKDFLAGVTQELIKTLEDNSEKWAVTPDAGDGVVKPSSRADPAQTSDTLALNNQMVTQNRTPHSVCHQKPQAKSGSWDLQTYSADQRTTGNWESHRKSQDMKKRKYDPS

[15] = target: T4, Sentrin-specific protease 6 (Homo sapiens, UniProt Q9GZR1); type: functional;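 further: Luminescence-based dose-response confirmatory assay of SENP6 inhibition, following up an ultra-high-throughput screen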
T4 sequence (Q9GZR1 whole entry): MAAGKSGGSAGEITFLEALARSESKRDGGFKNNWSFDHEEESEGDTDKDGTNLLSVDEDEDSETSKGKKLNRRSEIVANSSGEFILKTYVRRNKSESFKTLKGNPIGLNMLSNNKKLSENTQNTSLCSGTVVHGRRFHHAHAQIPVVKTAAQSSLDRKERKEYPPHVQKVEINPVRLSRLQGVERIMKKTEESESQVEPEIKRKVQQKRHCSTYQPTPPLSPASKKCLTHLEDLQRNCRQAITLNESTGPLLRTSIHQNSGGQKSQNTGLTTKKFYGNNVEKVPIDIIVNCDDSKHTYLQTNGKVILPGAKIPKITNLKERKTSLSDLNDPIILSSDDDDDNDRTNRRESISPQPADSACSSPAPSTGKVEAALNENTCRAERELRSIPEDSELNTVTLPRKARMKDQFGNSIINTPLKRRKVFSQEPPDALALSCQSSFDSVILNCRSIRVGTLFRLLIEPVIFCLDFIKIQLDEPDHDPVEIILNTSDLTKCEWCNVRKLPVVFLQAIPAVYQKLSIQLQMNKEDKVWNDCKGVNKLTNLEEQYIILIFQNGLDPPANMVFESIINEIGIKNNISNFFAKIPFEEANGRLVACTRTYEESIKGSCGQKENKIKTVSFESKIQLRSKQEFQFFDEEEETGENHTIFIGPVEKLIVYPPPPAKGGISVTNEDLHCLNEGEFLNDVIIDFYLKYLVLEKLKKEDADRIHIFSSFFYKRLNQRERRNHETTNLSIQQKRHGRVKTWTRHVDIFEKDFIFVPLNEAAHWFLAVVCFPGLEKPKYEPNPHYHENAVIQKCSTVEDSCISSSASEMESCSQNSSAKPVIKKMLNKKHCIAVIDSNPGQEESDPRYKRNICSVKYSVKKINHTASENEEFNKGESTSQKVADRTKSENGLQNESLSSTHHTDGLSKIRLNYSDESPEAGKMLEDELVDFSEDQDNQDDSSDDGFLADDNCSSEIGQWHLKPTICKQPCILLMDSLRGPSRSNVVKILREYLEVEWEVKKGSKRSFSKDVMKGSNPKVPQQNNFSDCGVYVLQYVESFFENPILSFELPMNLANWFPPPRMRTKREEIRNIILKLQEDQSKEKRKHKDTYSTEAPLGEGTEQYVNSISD

[16] = target: T5, Sentrin-specific protease 7 (Homo sapiens, UniProt Q9BQF6); type: functional;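 further: Luminescence-based dose-response confirmation of ultra-high-throughput screening hits, measuring inhibition of SENP7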
T5 sequence (Q9BQF6 whole entry): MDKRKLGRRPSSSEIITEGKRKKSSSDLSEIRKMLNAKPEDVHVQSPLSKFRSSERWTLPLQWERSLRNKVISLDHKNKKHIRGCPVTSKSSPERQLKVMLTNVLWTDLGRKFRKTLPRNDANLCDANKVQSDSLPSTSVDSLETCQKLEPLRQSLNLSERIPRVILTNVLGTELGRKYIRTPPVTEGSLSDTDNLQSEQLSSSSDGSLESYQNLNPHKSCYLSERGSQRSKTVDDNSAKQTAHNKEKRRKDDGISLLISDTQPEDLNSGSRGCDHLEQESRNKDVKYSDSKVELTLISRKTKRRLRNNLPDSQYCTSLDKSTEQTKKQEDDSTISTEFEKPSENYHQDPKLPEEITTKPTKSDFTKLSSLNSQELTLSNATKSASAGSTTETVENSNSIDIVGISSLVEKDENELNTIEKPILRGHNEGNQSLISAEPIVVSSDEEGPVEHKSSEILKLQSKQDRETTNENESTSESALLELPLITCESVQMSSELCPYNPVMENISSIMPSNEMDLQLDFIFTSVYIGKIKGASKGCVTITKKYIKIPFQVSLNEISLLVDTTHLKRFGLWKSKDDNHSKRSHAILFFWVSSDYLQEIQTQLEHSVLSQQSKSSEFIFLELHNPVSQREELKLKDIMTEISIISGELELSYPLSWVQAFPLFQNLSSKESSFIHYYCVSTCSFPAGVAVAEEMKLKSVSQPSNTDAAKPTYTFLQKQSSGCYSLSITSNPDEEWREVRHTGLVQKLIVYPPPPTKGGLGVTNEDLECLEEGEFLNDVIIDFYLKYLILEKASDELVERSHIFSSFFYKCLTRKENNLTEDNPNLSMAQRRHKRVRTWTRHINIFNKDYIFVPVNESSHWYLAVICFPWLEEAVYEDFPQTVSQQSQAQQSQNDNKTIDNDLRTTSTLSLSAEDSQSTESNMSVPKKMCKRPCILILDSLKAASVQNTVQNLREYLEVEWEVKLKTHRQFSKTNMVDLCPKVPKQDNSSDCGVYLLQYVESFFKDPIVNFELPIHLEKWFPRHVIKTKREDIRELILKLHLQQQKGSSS

[17] = target: T6, Sentrin-specific protease 8 (Homo sapiens, UniProt Q96LD8); type: functional;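 further: luminescence read-out of SENP8 inhibition, dose-response confirmation following an ultra-high-throughput screen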
T6 sequence (Q96LD8 whole entry): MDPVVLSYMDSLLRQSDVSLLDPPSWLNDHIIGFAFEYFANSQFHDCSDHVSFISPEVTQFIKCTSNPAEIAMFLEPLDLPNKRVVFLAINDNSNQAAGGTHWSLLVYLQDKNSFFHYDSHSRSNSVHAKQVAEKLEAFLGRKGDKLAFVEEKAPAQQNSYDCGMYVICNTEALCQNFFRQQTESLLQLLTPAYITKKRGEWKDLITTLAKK

[18] = target: T7, Caspase-3 (Homo sapiens, UniProt P42574); type: functional;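 further: Dose-response selectivity test against caspase-3 for candidate inhibitors of sentrin-specific proteases (SENPs)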
T7 sequence (P42574 whole entry): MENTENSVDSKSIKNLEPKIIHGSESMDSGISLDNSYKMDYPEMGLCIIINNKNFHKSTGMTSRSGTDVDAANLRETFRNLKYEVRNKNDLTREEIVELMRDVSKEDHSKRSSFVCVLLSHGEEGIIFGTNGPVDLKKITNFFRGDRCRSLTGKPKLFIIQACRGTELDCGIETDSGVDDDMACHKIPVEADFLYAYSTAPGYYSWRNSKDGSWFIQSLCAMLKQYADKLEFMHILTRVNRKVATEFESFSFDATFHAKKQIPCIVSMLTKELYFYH

[19] = off-target signal loss in HeLa-CEM21 co-culture – HeLa F-luc CTL cells, cherry-picked, counter-screen for HIV-1 Env fusion inhibitor project, dose response (AID 652040); type: functional, cell-based;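 further: potency for signal decrease marking cytotoxic or nonspecific inhibition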
[20] = blockers of HIV-1 ZM109 envelope-driven cell-cell fusion – HeLa effector, CEM target cells, luciferase, cherry-pick, dose response (AID 652058); type: functional, cell-based;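 further: luciferase signal from HIV-1 Env mediated cell-cell fusion of effector and target cells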
[21] = Luminescence Cell-Based Dose Retest to Confirm Inhibitors of Cancer Stem Cells. [Related pubchem assays (depositor defined):AID2717, AID2721]; type: functional; settings: Homo sapiens
[22] = test system: INS1; experiment: INS-1E survival protection against cytokine death – cell-based, luminescence, retest, dose response (AID 449756); type: functional; settings: Rattus norvegicus;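 further: cell death triggered by IL-1 beta plus TNF-alpha plus IFN-gamma mixture; protective hits raise ATP signal compared with cytokine alone wells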
[23] = general cell-killing toxicity readout – plate reader, dry powder samples, cytotoxicity control for PAX8 inhibitor project, dose response (AID 743021); type: functional, cell-based
[24] = target: Paired box protein Pax-8 (Homo sapiens, UniProt Q06710); experiment: PAX8 transcriptional activity inhibition in RMG-I – RMG-I cells, luciferase, cherry-pick, dose response (AID 687027); type: functional, cell-based;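 further: luciferase reporter driven by Pax8 target thyroperoxidase promoter measured by SteadyGlo luminescence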
Chain of Paired box protein Pax-8 (Q06710 whole entry): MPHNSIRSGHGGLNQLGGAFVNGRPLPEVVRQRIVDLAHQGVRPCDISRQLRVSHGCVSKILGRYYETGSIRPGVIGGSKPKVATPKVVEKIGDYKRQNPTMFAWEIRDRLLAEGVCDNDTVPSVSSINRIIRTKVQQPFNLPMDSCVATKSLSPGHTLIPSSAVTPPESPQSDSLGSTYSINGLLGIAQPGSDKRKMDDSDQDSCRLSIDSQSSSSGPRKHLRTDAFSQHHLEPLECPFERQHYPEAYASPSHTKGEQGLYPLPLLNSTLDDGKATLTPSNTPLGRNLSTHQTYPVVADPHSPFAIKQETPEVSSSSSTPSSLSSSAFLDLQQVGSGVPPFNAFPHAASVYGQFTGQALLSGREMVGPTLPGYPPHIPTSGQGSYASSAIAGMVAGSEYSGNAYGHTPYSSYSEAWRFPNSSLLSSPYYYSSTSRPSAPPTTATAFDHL

Cc1ccnc(Nc2nc3ccccc3o2)n1
active: AC50 [2] 4.77 µM | AC50 [4] 43.5 µM | EC50 [5] 3.04 µM | AC50 [6] 5.98 µM | AC50 [7] 46.8 µM | AC50 [8] 30.1 µM
> 50 µM (not active): IC50 [1] | EC50 [3]

Cn1c(=O)c2c(nc(NCCc3ccccc3)n2Cc2ccccc2)n(C)c1=O
active: AC50 [9] 49.1 µM | AC50 [10] 30.8 µM | AC50 [11] 12 µM

COc1ccc(/C=C2\Sc3ccc(C(=O)NCCCN4CCCC4)cc3N(C)C2=O)cc1OC
active: AC50 [14] 3.69 µM
inactive: IC50 [12] > 67.5 µM | IC50 [13] > 67.5 µM

CCOc1cccc(C(=O)Nc2ccc3ccccc3c2)c1
active: IC50 [15] 2.37 µM | IC50 [16] 1.46 µM | AC50 [2] 5.43 µM | IC50 [17] 4.95 µM | AC50 [6] 5.95 µM | IC50 [18] 3.54 µM
inactive: AC50 [4] > 52 µM | AC50 [7] > 52 µM | AC50 [8] > 52 µM

C/C=C1\COC(C(=O)NCc2cccc(OC)c2OC)(C(F)(F)F)C=C1C=C1CCCCC1 (configuration not stated)
active: AC50 [9] 22.3 µM | AC50 [10] 19.8 µM | AC50 [19] 50.1 µM | AC50 [11] 35.6 µM | AC50 [20] 9 µM

O=C(C[C@@H]1C/C=C/CC[C@H](Cc2ccc(F)cc2)C(=O)OC[C@@H](Cc2ccccc2)NC1=O)N[C@H](CO)Cc1ccccc1
active: AC50 [21] 0.956 µM | AC50 [22] 5 µM | AC50 [23] 33.4 µM | AC50 [24] 15 µM

COc1ccc(-n2nnnc2C(c2cccc(OC)c2OC)N2CCC(n3c(O)nc4ccccc43)CC2)cc1 (configuration not stated)
active: AC50 [2] 21.5 µM | AC50 [4] 25.6 µM | AC50 [6] 17.6 µM | AC50 [8] 17.6 µM
inactive: AC50 [7] > 52 µM
